Assay results published in ChEMBL document CHEMBL1133613, “1-[4-(3-Phenylalkyl)phenyl]-2-aminopropanes as 5-HT(2A) partial agonists” (J Med Chem, 2000).

Tests used:
[1] = molecular target: T1, 5-hydroxytryptamine receptor 2C (Rattus norvegicus, UniProt P08909); experiment: Displacement of [3H]mesulergine from A9 cells stably expressing rat 5-hydroxytryptamine 2C receptor; assay type: cell-based
T1 sequence (P08909 whole entry): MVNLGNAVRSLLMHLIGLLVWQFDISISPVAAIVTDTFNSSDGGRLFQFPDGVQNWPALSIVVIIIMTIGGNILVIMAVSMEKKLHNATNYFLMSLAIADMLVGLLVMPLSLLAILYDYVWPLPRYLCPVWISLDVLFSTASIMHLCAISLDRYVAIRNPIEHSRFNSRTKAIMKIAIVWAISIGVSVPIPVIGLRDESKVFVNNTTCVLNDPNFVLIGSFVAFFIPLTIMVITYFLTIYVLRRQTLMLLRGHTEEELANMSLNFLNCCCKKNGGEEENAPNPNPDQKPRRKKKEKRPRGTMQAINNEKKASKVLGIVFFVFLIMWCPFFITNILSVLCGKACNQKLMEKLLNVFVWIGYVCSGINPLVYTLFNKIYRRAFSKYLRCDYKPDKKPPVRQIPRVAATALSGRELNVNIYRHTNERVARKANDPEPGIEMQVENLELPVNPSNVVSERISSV

[2] = molecular target: 5-hydroxytryptamine receptor 2A (Rattus norvegicus, UniProt P14842); experiment: Displacement of [3H]ketanserin from NIH3T3 cells stably expressing rat 5-hydroxytryptamine 2A receptor; assay type: cell-based
Chain of 5-hydroxytryptamine receptor 2A (P14842 whole entry): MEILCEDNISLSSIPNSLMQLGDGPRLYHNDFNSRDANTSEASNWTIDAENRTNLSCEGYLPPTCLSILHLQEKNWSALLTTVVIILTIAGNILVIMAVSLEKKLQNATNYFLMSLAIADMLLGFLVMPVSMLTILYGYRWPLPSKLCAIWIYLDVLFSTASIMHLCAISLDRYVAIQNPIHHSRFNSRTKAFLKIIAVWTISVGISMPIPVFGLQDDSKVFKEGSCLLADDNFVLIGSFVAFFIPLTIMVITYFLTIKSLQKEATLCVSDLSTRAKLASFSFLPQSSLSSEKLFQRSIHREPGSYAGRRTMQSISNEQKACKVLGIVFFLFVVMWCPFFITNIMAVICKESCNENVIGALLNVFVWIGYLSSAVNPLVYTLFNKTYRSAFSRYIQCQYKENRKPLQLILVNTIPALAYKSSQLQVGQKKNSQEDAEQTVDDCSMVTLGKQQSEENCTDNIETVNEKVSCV

[3] = molecular target: Serotonin receptor 2a and 2c (5HT2A and 5HT2C) (Rattus norvegicus) (UniProt P08909+P14842); experiment: Relative affinities for rat 5-HT2C receptors and 5-HT2A receptors; assay type: protein assay
Chain of Serotonin receptor 2a and 2c (5HT2A and 5HT2C) (Rattus norvegicus) (P14842 whole entry, looked up, one chain of several): as the sequence (P14842 whole entry) above

Row | SMILES | Ki [1] [nM] | Ki [2] [nM] | Selectivity [3]
1 | COc1cccc(CC(C)N)c1OC (configuration not stated) | > 10000 | 4280 | –
2 | COc1cc(CC(C)N)c(OC)cc1CCCc1ccccc1 (configuration not stated) | 50 | 30 | 1.7
3 | COc1cc(CC(C)N)c(OC)cc1CCc1ccccc1 (configuration not stated) | 140 | 95 | 1.5
4 | COc1cc(CCCc2ccccc2)ccc1CC(C)N (configuration not stated) | 89 | 8 | 11.1
5 | COc1cc(CCCc2ccccc2)cc(OC)c1CC(C)N (configuration not stated) | 39 | 3 | 13
6 | COc1cc(CC(C)N)ccc1CCCc1ccccc1 (configuration not stated) | 135 | 17 | 7.9
7 | COc1cccc(OC)c1CC(C)N (configuration not stated) | > 10000 | > 10000 | –
8 | COc1cc(CCc2ccccc2)c(OC)cc1CCN | 76 | 37 | 2
9 | NCCc1ccc(CCCc2ccccc2)cc1 | 525 | 60 | 8.9
10 | COc1cc(CC(C)N)cc(OC)c1Br (configuration not stated) | 570 | 210 | –
11 | COc1ccccc1CC(C)N (configuration not stated) | > 10000 | > 10000 | –
12 | COc1ccc(CCCc2cc(OC)c(CC(C)N)cc2OC)cc1 (configuration not stated) | 24 | 28 | 0.9
13 | COc1cccc(CC(C)N)c1 (configuration not stated) | > 10000 | > 10000 | –
14 | COc1ccc(OC)c(CCN)c1 | 5520 | 3000 | –
15 | CC(N)Cc1ccc(CCCc2ccccc2)cc1 (configuration not stated) | 530 | 78 | 6.8
16 | COc1cc(CC(C)N)c(OC)cc1CCCCc1ccccc1 (configuration not stated) | 6 | 8 | 0.8
17 | COc1cc(CCN)c(OC)cc1Br | – | 16 | –
18 | COc1cc(CCCCc2ccccc2)c(OC)cc1CCN | 25 | 115 | 0.2
19 | COc1c(CCCc2ccccc2)ccc(CC(C)N)c1OC (configuration not stated) | 79 | 4 | 19.8
20 | COc1ccc(OC)c(CC(C)N)c1 (configuration not stated) | > 10000 | 4720 | –
21 | COc1cc(CC(C)N)c(OC)cc1CCCc1ccc(Cl)cc1 (configuration not stated) | 16 | 12 | 1.3
22 | COc1cc(CCCc2ccccc2)c(OC)cc1CCN | 28 | 150 | 0.2
23 | COc1cc(CC(C)N)cc(OC)c1CCCc1ccccc1 (configuration not stated) | 40 | 4 | 10
24 | COc1cc(C[C@@H](C)N)cc(OC)c1 | > 10000 | > 10000 | –
